Laboratory results as given in ChEMBL document CHEMBL5131457, “Design, synthesis and biological evaluation of novel 1H-pyrazole-4-carbonyl-4,5,6,7-tetrahydrobenzo [b]thiophene derivatives as gut-selective NaPi2b inhibitors” (Bioorg Med Chem Lett, 2022).
One block for each molecule: values may come before it.

Legend:
[1] = biological target: T1, Sodium-dependent phosphate transport protein 2B (Homo sapiens, UniProt O95436); experiment: Inhibition of human NaPi2b
T1 sequence (O95436 whole entry): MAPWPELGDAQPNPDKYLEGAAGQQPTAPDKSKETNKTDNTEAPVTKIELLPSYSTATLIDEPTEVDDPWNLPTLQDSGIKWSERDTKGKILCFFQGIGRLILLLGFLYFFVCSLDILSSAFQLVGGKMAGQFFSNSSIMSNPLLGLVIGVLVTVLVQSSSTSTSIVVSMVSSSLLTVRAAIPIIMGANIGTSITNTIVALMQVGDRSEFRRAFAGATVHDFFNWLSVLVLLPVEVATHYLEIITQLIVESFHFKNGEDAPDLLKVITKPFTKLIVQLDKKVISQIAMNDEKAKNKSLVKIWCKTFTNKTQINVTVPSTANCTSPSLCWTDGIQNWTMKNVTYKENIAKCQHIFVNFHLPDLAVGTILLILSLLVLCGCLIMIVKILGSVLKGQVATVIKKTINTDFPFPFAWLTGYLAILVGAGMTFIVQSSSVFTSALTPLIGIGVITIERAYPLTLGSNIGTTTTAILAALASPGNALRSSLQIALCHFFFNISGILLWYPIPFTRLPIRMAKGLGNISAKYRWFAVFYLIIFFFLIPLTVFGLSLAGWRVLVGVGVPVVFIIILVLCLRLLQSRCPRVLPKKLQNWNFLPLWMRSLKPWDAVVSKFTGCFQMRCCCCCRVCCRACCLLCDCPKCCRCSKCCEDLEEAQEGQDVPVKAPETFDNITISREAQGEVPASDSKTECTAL

[2] = AUC (0 to t) in fasted Sprague-Dawley rat at 1 mg/kg, iv; format: ADME, organism-based; set-up: dose 1 mg/kg, route iv; conditions: in vivo; for AUC(0-t): Sprague-Dawley
[3] = Oral bioavailability in fasted Sprague-Dawley rat at 10 mg/kg; format: ADME, organism-based; conditions: in vivo; for bioavailability: Sprague-Dawley
[4] = AUC (0 to t) in fasted Sprague-Dawley rat at 10 mg/kg, po; format: ADME, organism-based; set-up: dose 10 mg/kg, route po; conditions: in vivo; for AUC(0-t): Sprague-Dawley
[5] = Cmax in fasted Sprague-Dawley rat at 10 mg/kg, po; format: ADME, organism-based; set-up: dose 10 mg/kg, route po; conditions: in vivo
[6] = Solubility of the compound in FaSSIF at pH 6.6; format: physicochemical
[7] = Solubility of the compound in FeSSIF at pH 5.1; format: physicochemical
[8] = Drug concentration in Sprague-Dawley rat intestine at 10 mg/kg, po relative to excretion rate; format: ADME, organism-based; conditions: in vivo
[9] = Drug concentration in Sprague-Dawley rat intestine at 10 mg/kg, po relative to intestine volume; format: ADME, organism-based; conditions: in vivo
[10] = Drug excretion in fasted Sprague-Dawley rat feces at 10 mg/kg, po measured after 24 hrs; format: ADME, organism-based; conditions: faeces, read-out: Drug excretion
[11] = biological target: T2, Sodium-dependent phosphate transport protein 2B (Rattus norvegicus, UniProt Q9JJ09); experiment: Inhibition of rat NaPi2b
T2 sequence (Q9JJ09 whole entry): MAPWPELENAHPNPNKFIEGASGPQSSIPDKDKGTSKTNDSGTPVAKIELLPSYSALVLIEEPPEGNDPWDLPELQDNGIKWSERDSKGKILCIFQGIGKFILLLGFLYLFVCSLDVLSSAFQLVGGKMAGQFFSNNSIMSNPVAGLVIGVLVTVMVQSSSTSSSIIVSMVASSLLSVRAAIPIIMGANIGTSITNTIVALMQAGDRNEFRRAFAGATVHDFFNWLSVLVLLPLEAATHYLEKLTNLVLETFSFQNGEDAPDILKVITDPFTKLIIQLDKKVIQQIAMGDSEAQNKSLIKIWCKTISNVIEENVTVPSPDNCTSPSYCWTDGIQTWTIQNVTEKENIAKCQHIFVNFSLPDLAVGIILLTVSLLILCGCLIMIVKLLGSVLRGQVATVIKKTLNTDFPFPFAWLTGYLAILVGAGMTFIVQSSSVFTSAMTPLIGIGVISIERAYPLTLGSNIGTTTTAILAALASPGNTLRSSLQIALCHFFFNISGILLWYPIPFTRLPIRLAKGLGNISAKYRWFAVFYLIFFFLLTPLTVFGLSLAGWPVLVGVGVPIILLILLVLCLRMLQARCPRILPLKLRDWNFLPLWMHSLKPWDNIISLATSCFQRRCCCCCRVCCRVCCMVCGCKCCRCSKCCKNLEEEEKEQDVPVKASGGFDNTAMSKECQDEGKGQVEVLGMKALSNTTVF

IC50 [1]: > 1 µM
Compound: CCC(CC)N(CCN(C)C(=O)CCC(=O)O)Cc1cccc(C(=O)Nc2sc3c(c2C(=O)c2cnn(Cc4ccc(C(=O)O)cc4)c2)CCC(C)(C)C3)c1

IC50 [1]: 0.713 µM
Compound: CCC(CC)N(CCN(C)C(=O)CCC(=O)O)Cc1cccc(C(=O)Nc2sc3c(c2C(=O)c2cnn(-c4ccc(Cl)cc4)c2)CCSC3)c1

IC50 [1]: 2.49 µM
Compound: CCC(CC)N(CCN(C)C(=O)CCC(=O)O)Cc1cccc(C(=O)Nc2sc3c(c2C(=O)c2cnn(-c4ccc(Cl)cc4)c2)CCN(S(C)(=O)=O)C3)c1

AUC(0-t) [2]: 3070 ng·h/mL
bioavailability [3]: 7.1%
AUC(0-t) [4]: 2190 ng·h/mL
Cmax [5]: 625 ng/mL
IC50 [1]: 0.038 µM
Compound: CCC(CC)N(CCN(C)C(=O)CCC(=O)O)Cc1cccc(C(=O)Nc2sc3c(c2C(=O)c2cnn(-c4ccc(Cl)c(C(F)(F)F)c4)c2)CCC(C)(C)C3)c1

IC50 [1]: 0.437 µM
Compound: CCC(CC)N(CCN(C)C(=O)CCC(=O)O)Cc1cccc(C(=O)Nc2sc3c(c2C(=O)c2cnn(-c4ccc(Cl)cc4)c2)CCOC3)c1

IC50 [1]: 0.08 µM
Compound: CCC(CC)N(CCN(C)C(=O)CCC(=O)O)Cc1cccc(C(=O)Nc2sc3c(c2C(=O)c2cnn(-c4ccc(Cl)cc4)c2)CCN(C2CC2)C3)c1

IC50 [1]: 0.039 µM
Compound: CCC(CC)N(CCN(C)C(=O)CCC(=O)O)S(=O)(=O)c1cccc(C(=O)Nc2sc3c(c2C(=O)c2cnn(-c4ccc(Cl)c(C(F)(F)F)c4)c2)CCC(C)(C)C3)c1

IC50 [1]: 0.17 µM
Compound: CC1(C)CCc2c(sc(NC(=O)c3cccc(OCCOCCOCCOCCOCCOCCO)c3)c2C(=O)c2cnn(-c3ccc(Cl)c(C(F)(F)F)c3)c2)C1

IC50 [1]: > 1 µM
Compound: CCC(CC)N(CCN(C)C(=O)CCC(=O)O)Cc1cccc(C(=O)Nc2sc3c(c2C(=O)c2cnn(-c4cccc(C(=O)O)c4)c2)CCC(C)(C)C3)c1

IC50 [1]: 0.179 µM
Compound: CCC(CC)N(CCN(C)C(=O)CCC(=O)O)Cc1cccc(C(=O)Nc2sc3c(c2C(=O)c2cnn(Cc4ccccc4)c2)CCC(C)(C)C3)c1

IC50 [1]: 0.046 µM
Compound: CCC(CC)N(CCN(C)C(=O)CCC(=O)O)Cc1cccc(C(=O)Nc2sc3c(c2C(=O)c2cnn(-c4cccc(C(F)(F)F)c4)c2)CCC(C)(C)C3)c1

solubility [6]: 242 µg/mL
solubility [7]: > 434 µg/mL
Compound: CCC(CC)N(CCN(C)C(=O)CCC(=O)NC(C)(C)C(=O)NCCN(C)C)Cc1cccc(C(=O)Nc2sc3c(c2C(=O)c2cnn(-c4ccc(Cl)c(C(F)(F)F)c4)c2)CCC(C)(C)C3)c1.Cl

IC50 [1]: > 1 µM
Compound: CCC(CC)N(CCN(C)C(=O)CCC(=O)O)Cc1cccc(C(=O)Nc2sc3c(c2C(=O)c2cnn(Cc4cccc(C(=O)O)c4)c2)CCC(C)(C)C3)c1

IC50 [1]: 0.036 µM
Compound: CCC(CC)N(CCN(C)C(=O)CCC(=O)O)Cc1cccc(C(=O)Nc2sc3c(c2C(=O)c2cnn(-c4ccc(Cl)cc4)c2)CCC(C)(C)C3)c1

IC50 [1]: > 1 µM
Compound: CCC(CC)N(CCN(C)C(=O)CCC(=O)O)Cc1cccc(C(=O)Nc2sc3c(c2C(=O)c2cnn(Cc4nnc[nH]4)c2)CCC(C)(C)C3)c1

IC50 [1]: 0.087 µM
Compound: CCC(CC)N(CCN(C)C(=O)CCC(=O)N(C)C[C@H](O)[C@@H](O)[C@@H](O)[C@H](O)CO)Cc1cccc(C(=O)Nc2sc3c(c2C(=O)c2cnn(-c4ccc(Cl)c(C(F)(F)F)c4)c2)CCC(C)(C)C3)c1

IC50 [1]: > 1 µM
Compound: CCC(CC)N(CCN(C)C(=O)CCC(=O)O)Cc1cccc(C(=O)Nc2sc3c(c2C(=O)c2cnn(-c4ccc(Cl)cc4)c2)CCN(C(C)=O)C3)c1

solubility [6]: 107 µg/mL
solubility [7]: > 384 µg/mL
Compound: CCC(CC)N(CCN(C)C(=O)CCC(=O)NCCOCCOCCOCCO)Cc1cccc(C(=O)Nc2sc3c(c2C(=O)c2cnn(-c4ccc(Cl)c(C(F)(F)F)c4)c2)CCC(C)(C)C3)c1.Cl

IC50 [1]: > 1 µM
Compound: CCC(CC)N(CCN(C)C(=O)CCC(=O)O)Cc1cccc(C(=O)Nc2sc3c(c2C(=O)c2cnn(-c4ccc(C(=O)O)cc4)c2)CCC(C)(C)C3)c1

IC50 [1]: 0.042 µM
Compound: CCN([C@H]1CC[C@H](C(=O)O)CC1)S(=O)(=O)c1cccc(C(=O)Nc2sc3c(c2C(=O)c2cnn(-c4ccc(Cl)c(C(F)(F)F)c4)c2)CCC(C)(C)C3)c1

AUCt [2]: 2580 ng·h/mL
Ct [8]: 45 µg/mL
F ([3]; po, 10 mg/kg): 0.6%
AUCt [4]: 15.3 ng·h/mL
Cmax [5]: 15.3 ng/mL
Ct [9]: 58 µg/mL
IC50 [1]: 0.048 µM
dose excreted at 24 h [10]: 76.8%
IC50 [11]: 0.0076 µM
Compound: CCC(CC)N(CCN(C)C(=O)CCC(=O)NC(C)(C)C(=O)NCCN(C)C)Cc1cccc(C(=O)Nc2sc3c(c2C(=O)c2cnn(-c4ccc(Cl)c(C(F)(F)F)c4)c2)CCC(C)(C)C3)c1

AUC(0-t) [2]: 1570 ng·h/mL
Ct [8]: 36 µg/mL
bioavailability [3]: 0.2%
AUC(0-t) [4]: 32.3 ng·h/mL
Cmax [5]: 28.1 ng/mL
Ct [9]: 58 µg/mL
IC50 [1]: 0.015 µM
dose excreted at 24 h [10]: 61.7%
IC50 [11]: 0.0021 µM
Compound: CCC(CC)N(CCN(C)C(=O)CCC(=O)NCCOCCOCCOCCO)Cc1cccc(C(=O)Nc2sc3c(c2C(=O)c2cnn(-c4ccc(Cl)c(C(F)(F)F)c4)c2)CCC(C)(C)C3)c1

IC50 [1]: 0.118 µM
Compound: CCC(CC)N(CCN(C)C(=O)CCC(=O)O)Cc1cccc(C(=O)Nc2sc3c(c2C(=O)c2cnn(-c4ccc(Cl)cc4)c2)CCCC3)c1
